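Growth conditions: 96-well plates. Treatment: test compound, 48 hours, 5 concentrations. Analysis: linear interpolation between bracketing concentrations; unreached endpoints set to highest concentration. GI50 marks 50% less growth.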 Active and inactive are the calls of the source. Rule as the data show it: active = GI50 up to about 1.1 µM and inactive = higher.
How the values were obtained:
Assay in all cases: inhibition of tumour cell growth, NCI panel, 48 h
A549 = tested on: A549
ACHN = tested on: ACHN
BT-549 = tested on: BT-549
COLO 205 = tested on: COLO 205
EKVX = tested on: EKVX
HCT-15 = tested on: HCT-15
HL-60 = tested on: HL-60
HT-29 = tested on: HT-29
IGROV-1 = tested on: IGROV-1
MDA-N = tested on: MDA-N
NCI-H522 = tested on: NCI-H522
OVCAR-4 = tested on: OVCAR-4
RPMI-8226 = tested on: RPMI-8226
SF-268 = tested on: SF-268
SK-MEL-28 = tested on: SK-MEL-28
SK-MEL-5 = tested on: SK-MEL-5
SK-OV-3 = tested on: SK-OV-3
SN12C = tested on: SN12C
HCC 2998 = tested on: HCC 2998

Row | SMILES | GI50 (A549) | GI50 (ACHN) | GI50 (BT-549) | GI50 (COLO 205) | GI50 (EKVX) | GI50 (HCT-15) [µM] | GI50 (HL-60) | GI50 (HT-29) | GI50 (IGROV-1) | GI50 (MDA-N) | GI50 (NCI-H522) | GI50 (OVCAR-4) | GI50 (RPMI-8226) | GI50 (SF-268) | GI50 (SK-MEL-28) | GI50 (SK-MEL-5) | GI50 (SK-OV-3) | GI50 (SN12C) | GI50 (HCC 2998)
1 | COc1ccc(-c2cc(-c3cc(F)c(Cl)cc3Cl)[nH]n2)cc1OC | 40.7 µM (inactive) | 7.76 µM (inactive) | 30.2 µM (inactive) | 19.2 µM (inactive) | 22.2 µM (inactive) | 21.2 | 15.6 µM (inactive) | 22.1 µM (inactive) | 19.2 µM (inactive) | 52.8 µM (inactive) | 20.2 µM (inactive) | 32.4 µM (inactive) | 17.3 µM (inactive) | 29.2 µM (inactive) | 48.6 µM (inactive) | 17.1 µM (inactive) | 31.9 µM (inactive) | 22.7 µM (inactive) | 
2 | CC(C)=CCC(O)[C@](C)(O)[C@H]1[C@H](O)C[C@@]2(C)[C@@H]3CCc4cc(O)c(OC5OC(CO)C(O)C(O)C5O)cc4C3(C)C(=O)C[C@]12C (some centres undefined) | > 100 µM (inactive) | > 100 µM (inactive) | > 100 µM (inactive) | > 100 µM (inactive) | > 100 µM (inactive) | > 100 |  | > 100 µM (inactive) | 89.3 µM (inactive) | > 100 µM (inactive) | > 100 µM (inactive) | > 100 µM (inactive) |  | > 100 µM (inactive) | > 100 µM (inactive) | > 100 µM (inactive) | > 100 µM (inactive) | > 100 µM (inactive) | > 100 µM (inactive)
3 | COc1cc(N(C)C)c(OC)cc1C=C1C=CC=C1 | > 100 µM (inactive) | > 100 µM (inactive) | > 100 µM (inactive) |  | > 100 µM (inactive) | > 10 | 36.4 µM (inactive) | 60.4 µM (inactive) | > 100 µM (inactive) | 44.1 µM (inactive) |  |  |  | > 100 µM (inactive) | > 100 µM (inactive) | > 100 µM (inactive) | > 100 µM (inactive) | > 100 µM (inactive) | > 100 µM (inactive)
4 | Cn1cnc2c(sc3nc4ccccc4n32)c1=N | > 100 µM (inactive) | > 100 µM (inactive) | > 100 µM (inactive) | > 100 µM (inactive) | 52.2 µM (inactive) | > 100 | > 100 µM (inactive) | > 100 µM (inactive) | 22.6 µM (inactive) | > 100 µM (inactive) |  | > 100 µM (inactive) | > 100 µM (inactive) | > 100 µM (inactive) | > 100 µM (inactive) | > 100 µM (inactive) | > 100 µM (inactive) |  | 17.6 µM (inactive)
5 | O=C1C(Cl)=C(Nc2ccc(S(=O)(=O)O)cc2)C(=O)c2ccccc21 | 21.9 µM (inactive) | 22 µM (inactive) | 76.2 µM (inactive) | 17.4 µM (inactive) | 15.7 µM (inactive) | 35.2 | 26.9 µM (inactive) | > 100 µM (inactive) | 20 µM (inactive) |  | 18.2 µM (inactive) | 38.5 µM (inactive) | 24.7 µM (inactive) | 39.3 µM (inactive) | 32.1 µM (inactive) | 13.4 µM (inactive) |  |  | 95.9 µM (inactive)
6 | O=c1[nH]c2ccc(C(F)(F)F)cc2nc1Cc1ccccc1 |  | 29.1 µM (inactive) | 34 µM (inactive) | 18.1 µM (inactive) | 25.8 µM (inactive) | 36.1 | 34.8 µM (inactive) | 25.4 µM (inactive) | 23.4 µM (inactive) |  |  | 33.4 µM (inactive) | 39.2 µM (inactive) | 35.2 µM (inactive) | 39.7 µM (inactive) | 24.7 µM (inactive) | 44.9 µM (inactive) |  | 24.1 µM (inactive)
7 | CC1(O)CC(C(F)(F)F)(C(F)(F)F)OC1=O (centres undefined) | > 10 µM (inactive) | > 10 µM (inactive) | > 10 µM (inactive) | > 10 µM (inactive) | > 10 µM (inactive) | > 10 |  | > 10 µM (inactive) | > 10 µM (inactive) | > 10 µM (inactive) | > 10 µM (inactive) | > 10 µM (inactive) | > 10 µM (inactive) | > 10 µM (inactive) | > 10 µM (inactive) | > 10 µM (inactive) | > 10 µM (inactive) | > 10 µM (inactive) | > 10 µM (inactive)
8 | COC(=O)Cc1ccc(Oc2nc3ccccc3nc2-c2cccs2)cc1 | > 100 µM (inactive) | > 100 µM (inactive) | 57.8 µM (inactive) | > 100 µM (inactive) | > 100 µM (inactive) | > 100 | > 100 µM (inactive) | > 100 µM (inactive) | > 100 µM (inactive) |  | > 100 µM (inactive) | > 100 µM (inactive) | > 100 µM (inactive) | 36 µM (inactive) | > 100 µM (inactive) | > 100 µM (inactive) | 24.8 µM (inactive) | > 100 µM (inactive) | > 100 µM (inactive)
